Reference: PubChem BioAssay AID1195 (EPA DSSTox, 2008)

Test system: human maximum recommended daily dose, FDA database
Assay: DSSTox (FDAMDD) FDA Maximum (Recommended) Daily Dose Database
Details: hits give low values
Summary of the method: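 MRDD values come from clinical trials with daily oral dosing, usually for 3–12 months, for the average adult, in mg/day converted to mg/kg-bw/day assuming 60 kg. Antineoplastic mg/m2 doses are divided by 37. Activity score maps log10(1/MRDD mmol) onto 1–100.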

[1] = TherapeuticCategory: antineoplastic
[2] = TherapeuticCategory: antibacterial
[3] = TherapeuticCategory: antiulcerative
[4] = TherapeuticCategory: antihyperlipoproteinemic

Work on `CN1[C@@H]2CC(OC(=O)[C@H](CO)c3ccccc3)C[C@H]1[C@@H]1O[C@@H]12` (stereo partly drawn) yielded a maximum recommended daily dose (mmol/kg-bw/day) (TherapeuticCategory: anticholinergic) of 1.09e-06.
For `O=C(O)P(=O)(O)O`, the maximum recommended daily dose (mmol/kg-bw/day) (TherapeuticCategory: antiviral) was 0.625.
Compound `CCC(=O)Oc1ccc2c(c1)CC[C@@H]1[C@@H]2CC[C@]2(C)[C@@H](OC(=O)CC)CC[C@@H]12` has a maximum recommended daily dose (mmol/kg-bw/day) (TherapeuticCategory: estrogen) of 0.0013.
`N=C(N)N` gave a maximum recommended daily dose (mmol/kg-bw/day) (TherapeuticCategory: none) of 0.846.
With `COc1cccc2c1C(=O)c1c(O)c3c(c(O)c1C2=O)C[C@@](O)(/C(C)=N/NC(=O)c1ccccc1)C[C@@H]3O[C@H]1C[C@H](N)[C@H](O)[C@H](C)O1` the maximum recommended daily dose (mmol/kg-bw/day) [1] was 0.0103.
With `C[C@]12CC[C@@H]3c4ccc(OS(=O)(=O)O)cc4CC[C@H]3[C@@H]1CCC2=O` the maximum recommended daily dose (mmol/kg-bw/day) (TherapeuticCategory: estrogen) was 0.000107.
With `CC1(C)S[C@@H]2[C@H](NC(=O)[C@H](N)c3ccccc3)C(=O)N2[C@H]1C(=O)O` the maximum recommended daily dose (mmol/kg-bw/day) [2] was 0.167.
For `CCn1nc(C(=O)O)c(=O)c2cc3c(cc21)OCO3`, the maximum recommended daily dose (mmol/kg-bw/day) [2] was 0.0637.
Work on `CN(C)CCC=C1c2ccccc2CCc2ccccc21` yielded a maximum recommended daily dose (mmol/kg-bw/day) (TherapeuticCategory: antidepressant) of 0.018.
With `O=C1CN(/N=C/c2ccc(-c3ccc([N+](=O)[O-])cc3)o2)C(=O)N1` the maximum recommended daily dose (mmol/kg-bw/day) (TherapeuticCategory: skeletal muscle relaxant) was 0.0212.
`CC(CN(C)C)CN1c2ccccc2Sc2ccccc21` (stereo not drawn) was tested, and the maximum recommended daily dose (mmol/kg-bw/day) (TherapeuticCategory: antipruritic) was 0.0056.
`O=P(O)(O)C(O)(Cc1cccnc1)P(=O)(O)O` gave a maximum recommended daily dose (mmol/kg-bw/day) (TherapeuticCategory: antiosteoporotic, Ca regulator, Ca channel blocker) of 0.000294.
Compound `CC(C)(C)c1ccc(C(O)CCCN2CCC(C(O)(c3ccccc3)c3ccccc3)CC2)cc1` (stereo not drawn) has a maximum recommended daily dose (mmol/kg-bw/day) (TherapeuticCategory: antihistaminic) of 0.00424.
With `CN=C(NC#N)NCCSCc1nc[nH]c1C` the maximum recommended daily dose (mmol/kg-bw/day) [3] was 0.159.
`CN1[C@@H](CC(=O)c2ccccc2)CCC[C@H]1C[C@H](O)c1ccccc1` gave a maximum recommended daily dose (mmol/kg-bw/day) (TherapeuticCategory: respiratory stimulant) of 0.000495.
In the case of `O=NN(CCCl)C(=O)NCCCl`, the maximum recommended daily dose (mmol/kg-bw/day) [1] is reported as 0.000389.
With `CCC(C)(C)C(=O)O[C@H]1C[C@@H](C)C=C2C=C[C@H](C)[C@H](CC[C@@H]3C[C@@H](O)CC(=O)O3)[C@H]21` the maximum recommended daily dose (mmol/kg-bw/day) [4] was 0.00159.
Work on `CC(CN(C)C)C(C)(O)Cc1ccc(Cl)cc1` (stereo not drawn) yielded a maximum recommended daily dose (mmol/kg-bw/day) (TherapeuticCategory: antitussive) of 0.0156.
With `CC(=O)[C@@]1(O)CC[C@H]2[C@@H]3C=C(Cl)C4=CC(=O)[C@@H]5C[C@@H]5[C@]4(C)[C@H]3CC[C@@]21C` the maximum recommended daily dose (mmol/kg-bw/day) (TherapeuticCategory: antiandrogen) was 0.0133.
For `Cc1ccc(C)c(OCCCC(C)(C)C(=O)O)c1`, the maximum recommended daily dose (mmol/kg-bw/day) [4] was 0.0799.
`C[C@H]1CC2=CC(=O)CC[C@]2(C)[C@H]2CC[C@@]3(C)[C@@H](CC[C@]3(C)O)[C@H]12` was tested, and the maximum recommended daily dose (mmol/kg-bw/day) [1] was 0.0158.
Compound `Cc1cccc(CN2CCN(C(c3ccccc3)c3ccc(Cl)cc3)CC2)c1` (stereo not drawn) has a maximum recommended daily dose (mmol/kg-bw/day) (TherapeuticCategory: antiemetic) of 0.00427.
With `CC(=O)O[C@H]1CC[C@@]2(C)C(=CC[C@@H]3[C@@H]2CC[C@]2(C)C(=O)CC[C@@H]32)C1` the maximum recommended daily dose (mmol/kg-bw/day) (TherapeuticCategory: androgen) was 0.0101.
Compound `CN1CCN(CC(=O)N2c3ccccc3C(=O)Nc3cccnc32)CC1` has a maximum recommended daily dose (mmol/kg-bw/day) [3] of 0.00711.
In the case of `NC(Cc1ccccc1)C(=O)O` (stereo not drawn), the maximum recommended daily dose (mmol/kg-bw/day) [2] is reported as 0.605.
With `NC(N)=Nc1nc(CSCC/C(N)=N/S(N)(=O)=O)cs1` the maximum recommended daily dose (mmol/kg-bw/day) [3] was 0.00198.
`CC(=O)[C@]1(O)Cc2c(O)c3c(c(O)c2[C@@H](O[C@H]2C[C@H](N)[C@H](O)[C@H](C)O2)C1)C(=O)c1ccccc1C3=O` gave a maximum recommended daily dose (mmol/kg-bw/day) (TherapeuticCategory: antibacterial, antineoplastic) of 0.00543.
`CC(C)=CCOc1ccc(/C=C/C(=O)c2ccc(OCC=C(C)C)cc2OCC(=O)O)cc1` was tested, and the maximum recommended daily dose (mmol/kg-bw/day) [3] was 0.0111.
`C[C@]12CCC(=O)C=C1CC[C@@H]1[C@@H]2[C@@H](O)C[C@]2(C=O)[C@@H](C(=O)CO)CC[C@@H]12` was tested, and the maximum recommended daily dose (mmol/kg-bw/day) (TherapeuticCategory: mineralcorticoid) was 2.31e-05.
`CC[C@]1(O)C[C@H]2CN(CCc3c([nH]c4ccccc34)[C@@](C(=O)OC)(c3cc4c(cc3OC)N(C)[C@H]3[C@@](O)(C(N)=O)[C@H](O)[C@]5(CC)C=CCN6CC[C@]43[C@@H]65)C2)C1` was tested, and the maximum recommended daily dose (mmol/kg-bw/day) [1] was 0.000143.
Compound `O=C(O)CCC(=O)c1ccc2c(c1)-c1cccc3cccc-2c13` has a maximum recommended daily dose (mmol/kg-bw/day) (TherapeuticCategory: choleretic) of 0.0552.
For `O=C1C[C@@H]2OCC=C3CN4CC[C@]56c7ccccc7N1[C@H]5[C@H]2[C@H]3C[C@H]46`, the maximum recommended daily dose (mmol/kg-bw/day) (TherapeuticCategory: rat poison) was 0.00209.
In the case of `CCOC(=O)/C=C(C)/C=C/C=C(C)/C=C/c1c(C)cc(OC)c(C)c1C`, the maximum recommended daily dose (mmol/kg-bw/day) (TherapeuticCategory: antipsoriatic) is reported as 0.00423.
Compound `CCC[C@H](N[C@@H](C)C(=O)N1[C@H](C(=O)O)C[C@@H]2CCCC[C@@H]21)C(=O)OCC` has a maximum recommended daily dose (mmol/kg-bw/day) (TherapeuticCategory: antihypertensive, ACE inhibitor) of 0.000361.
`CCOc1cc(CC(=O)N[C@@H](CC(C)C)c2ccccc2N2CCCCC2)ccc1C(=O)O` showed a maximum recommended daily dose (mmol/kg-bw/day) (TherapeuticCategory: antidiabetic) of 0.00059.
Work on `Cc1ccccc1C(OCCN(C)C)c1ccccc1` (stereo not drawn) yielded a maximum recommended daily dose (mmol/kg-bw/day) (TherapeuticCategory: skeletal muscle relaxant, antihistiminic) of 0.0248.
Compound `O=C1c2ccccc2C(=O)C1c1ccccc1` has a maximum recommended daily dose (mmol/kg-bw/day) (TherapeuticCategory: anticoagulant) of 0.015.
`CCCCC(CC)COC(=O)CC(C(=O)OCC(CC)CCCC)S(=O)(=O)O` (stereo not drawn) showed a maximum recommended daily dose (mmol/kg-bw/day) (TherapeuticCategory: stool softener) of 0.0109.
